Like-named read-outs stand apart in the source and are kept apart here.

For data set [1] the following is noted: cited from earlier work.
The subject of data set [2] is multiple human carcinoma xenografts including HCT 116, NCI-H460, and taxane-resistant CXB1 colon carcinoma. To be noted: ~25 mg/kg/day; cited from earlier work.
The conditions of data set [3]: in combination with afatinib; cited from earlier work.
Data set [4] concerns panel of >50 other kinases. To be noted: concentrations up to 10 μM, in vitro; cited from earlier work.
The subject of data set [5] is 22 RV1. Description: Cell-Titer Glo viability, 22 RV1. In kind it is cell-based. The settings on record: for effect on cell killing by 10 μM Abiraterone: 10, 20 and 40 μM SB203580 (FIG. 13B). How it is done: Cell viability of PCa cell lines to increasing doses (10, 20 and 40 μM) of the p38MAPK inhibitor SB203580, as measured using Cell Titer Glo (FIG. 13A).
In data set [6] the test system is LNCaP. Kind of data set: Cell-Titer Glo viability, LNCaP. In kind it is cell-based, human. To be noted: for effect on cell killing by 10 μM Abiraterone: 10, 20 and 40 μM SB203580 (FIG. 13B). Here is the method:
(§1) Twenty four hours later, the indicated concentration of BI2536 and R1881 were added, representing time zero. Viability of the prostate cancer cells was assessed using Cell-Titer Glo™ according to the manufacturer's instructions.
(§2) Cell viability was assessed after 5 days using Cell-Titer Glo™ according to the manufacturer's instructions.
(§3) Cell viability was assessed after 4 days using Cell-Titer Glo™ according to the manufacturer's instructions.
Experiments were conducted to investigate the role of the p38MAPK-MK2 pathway in prostate cancer, Western blotting was used to investigate up-regulation of MK3 and MK5 protein levels in LNCaP cells after MK2 knock down using shRNA.

Data set [7] relates to C4-2. Description: Cell-Titer Glo viability, C4-2. The data set is classed as cell-based, human. The settings on record: for effect on cell killing by 10 μM Abiraterone: 10, 20 and 40 μM SB203580 (FIG. 13B); for relative levels of proliferation: 5 nM BI2536, 10 μM abiraterone, alone or in combination, FBS, 5 days post-administration (FIG. 4). How it is done: as §1
Viability was measured for the subsequent five days using Cell-Titer Glo™ according to the manufacturer's instructions.
as §2, §3

Data set [8] concerns HT-29 human colorectal tumors. The settings on record: cited from earlier work.
In data set [9] the target is several tyrosine kinases and cyclin-dependent kinase 1 (Cdk1). The settings on record: cited from earlier work.
The conditions of data set [10]: cited from earlier work. This is another data set of the same source.
In data set [11] the test system is BT20 cells. To be noted: 200 mg/kg; cited from earlier work.
Data set [12] has as its system Bel-7402, MCF-7, and MIA-PaCa cells. To be noted: 250 mg/kg; cited from earlier work.
For data set [13] the following is noted: 24 to 48 mg/m^2 for 5 consecutive days every 4 weeks; cited from earlier work.
For data set [14] the following is noted: cited from earlier work. The source holds these as a separate data set.
For data set [15], the system named is several tumor cell lines, including those that express multidrug-resistant protein 1 (MDR1). To be noted: cited from earlier work.
Data set [16] deals with xenograft tumor models. To be noted: under proper dose scheduling; cited from earlier work.
The conditions of data set [17]: cited from earlier work. The source holds these as a separate data set.
For data set [18], the system named is cell culture. The settings on record: cited from earlier work.
The conditions of data set [19]: other studies; cited from earlier work.
The subject of data set [20] is BxPC-3. To be noted: twice-weekly; cited from earlier work.
For data set [21] the following is noted: cited from earlier work. This is another data set of the same source.
The subject of data set [22] is A549. The settings on record: twice-weekly; cited from earlier work.
Data set [23] has as its system PSA expression. Kind of data set: PSA expression by qPCR in C4-2 CRPC cells. To be noted: 10 μM abiraterone, 5 nM BI2536, alone or combined; 24 hours; FBS (FIG. 8). In kind it is cell-based, human. From the text:
RNA was isolated for analysis by qPCR.

Data set [24] has as its system HCT 116 xenografts. To be noted: cited from earlier work.
The conditions of data set [25]: cited from earlier work. The source holds these as a separate data set.
The subject of data set [26] is Cdc25C-T96 phosphorylation. The settings on record: read-out: EC50 Cdc25C-T96 phosphorylation; cited from earlier work.
Data set [27] has as its system cell mitosis. The settings on record: read-out: EC50 inhibition of cell mitosis; cited from earlier work.
For data set [28] the following is noted: cited from earlier work. The source holds these as a separate data set.
The subject of data set [29] is cell lines, representative of both solid and hematological tumors. To be noted: cited from earlier work.
Data set [30] deals with various human tumor cell lines. The settings on record: cited from earlier work.
Data set [31] deals with mouse xenograft models. The settings on record: 10 mg/kg and 20 mg/kg on days 1 and 28; cited from earlier work.
Data set [32] addresses Plk1 (Homo sapiens, UniProt P53350). To be noted: cited from earlier work.
Setting [33] is: increasing concentrations of BI2536, csFBS (FIG. 3A).

Plk1, sequence (P53350 whole entry): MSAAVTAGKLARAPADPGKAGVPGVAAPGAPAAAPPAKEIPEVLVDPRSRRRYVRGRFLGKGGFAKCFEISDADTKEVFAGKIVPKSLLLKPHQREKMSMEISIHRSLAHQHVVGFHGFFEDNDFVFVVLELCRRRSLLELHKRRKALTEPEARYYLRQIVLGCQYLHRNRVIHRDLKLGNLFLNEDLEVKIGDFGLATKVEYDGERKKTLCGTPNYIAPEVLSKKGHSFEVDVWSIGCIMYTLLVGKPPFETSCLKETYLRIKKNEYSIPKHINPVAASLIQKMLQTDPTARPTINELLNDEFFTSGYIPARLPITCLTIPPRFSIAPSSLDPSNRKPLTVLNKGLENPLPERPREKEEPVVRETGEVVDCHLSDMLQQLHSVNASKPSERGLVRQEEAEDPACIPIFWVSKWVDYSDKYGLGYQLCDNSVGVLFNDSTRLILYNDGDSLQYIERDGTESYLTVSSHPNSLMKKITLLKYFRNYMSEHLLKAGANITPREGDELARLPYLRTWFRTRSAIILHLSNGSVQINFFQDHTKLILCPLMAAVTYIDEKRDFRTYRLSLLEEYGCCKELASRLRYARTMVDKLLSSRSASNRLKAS

As for `CC[C@@H]1C(=O)N(C)c2cnc(Nc3ccc(C(=O)N[C@H]4CC[C@H](N5CCN(CC6CC6)CC5)CC4)cc3OC)nc2N1C(C)C` [BI6727], in [1] (i.v. once every 3 weeks, 12-450 mg), the DLTs entry was “neutropenia, thrombocytopenia, and febrile neutropenia”. Moreover, the results for the MTD in data set [1] (i.v. once every 3 weeks) and in data set [3] were 400 mg and 300 mg, respectively. For the same compound, the “recommended dose for further development based on overall tolerability” value in [1] (in vivo) is 300 mg. For the same compound, the growth of xenografts result in [2] is listed as “significantly inhibits the growth”. Further, in data set [4], the “inhibitory activity against a panel of >50 other kinases” value was “no inhibitory activity”.
Turning to `CC(=O)O[C@@]12CO[C@@H]1C[C@H](O)[C@@]1(C)C(=O)[C@H](O)C3=C(C)[C@@H](OC(=O)[C@H](O)[C@@H](NC(=O)OC(C)(C)C)c4ccccc4)C[C@@](O)([C@@H](OC(=O)c4ccccc4)[C@H]21)C3(C)C` [Docetaxel, docetaxel], the “synergy with Abiraterone (% viability)” value in data set [5] (5 nM docetaxel, increasing abiraterone, 4 days, csFBS (FIG. 7B)) was “did not synergize with Abiraterone”; in [6] (5 nM docetaxel, increasing abiraterone, 4 days, FBS (FIG. 7A)) it was “did not synergize with Abiraterone”; in data set [7] (5 nM docetaxel, increasing abiraterone, 4 days, csFBS (FIG. 7C)) it was “did not synergize with Abiraterone”.
Regarding `COc1cc(C(=O)NC2CCN(C)CC2)ccc1Nc1ncc2c(n1)N(C1CCCC1)CC(F)(F)C(=O)N2C` [RO3280], the antitumor activity result in data set [8] (dosed more frequently) is on record as “complete tumor regression”. Further, in data set [8] (once weekly at 40 mg/kg), the tumor growth inhibition was 72%.
As for `COc1cc(OC)c(/C=C/S(=O)(=O)Cc2ccc(OC)c(NCC(=O)[O-])c2)c(OC)c1.[Na+]` [ON 01910], the IC50 – broadly, the concentration at which inhibition is half-maximal – in data set [9] is 18 to 260 nM. Also, the DLT result in data set [10] (at the MTD) is “Grade 3 abdominal pain”. In data set [10] (i.v. days 1, 4, 8, 11, 15, and 18 in 28-day cycles), the MTD is 3,120 mg. Besides, the tumor growth result in data set [11] was “inhibition of tumor growth”; in data set [12], “inhibited tumor growth”.
For `COc1ccc(S(=O)(=O)N(C(C)=O)c2ccccc2/C=C/c2cc[n+]([O-])cc2)cc1` [HMN-214], the DLTs entry in data set [13] is “prolonged neutropenia, febrile neutropenia, neutropenic sepsis, electrolyte disturbance, neuropathy, and myalgia”. For the same compound, in data set [14] (9.9 mg/m^2/d), the dose-limiting toxicities result was “severe myalgia/bone pain syndrome and hyperglycemia”. Further, the “maximum tolerated dose and recommended dose” value in data set [14] (continuous 21-day dosing schedule every 28 days) is 8.0 mg/m^2/d.
In the case of `COc1cc(C(=O)NC2CCN(C)CC2)c(F)cc1Nc1ncc2c(n1)N(C1CCCC1)CC(F)(F)C(=O)N2C` [TAK-960], the “activity in tumor cell lines” value in data set [15] is “has shown activity”.
As for `C[S+]([O-])c1ccc(-c2nc(-c3ccncc3)c(-c3ccc(F)cc3)[nH]2)cc1` (centres unmarked) [SB203580], the “cell death, p38MAPK inhibition alone” value is reported as “small amounts of cell death” in [5] (10, 20 and 40 μM (FIG. 13A)); “small amounts of cell death” in [6] (10, 20 and 40 μM (FIG. 13A)); “small amounts of cell death” in data set [7] (10, 20 and 40 μM (FIG. 13A)). Besides, the “effect on cell killing by 10 μM Abiraterone” value is recorded as “additive” in [5]; “modestly enhanced” in data set [5] (listed as p38MAPK inhibitor); “additive” in [6]; “modestly enhanced” in data set [6] (listed as p38MAPK inhibitor); “additive” in [7]; “modestly enhanced” in data set [7] (listed as p38MAPK inhibitor).
`C[C@]1(O)CC[C@H]2[C@@H]3CCC4=CC(=O)CCC4=C3C=C[C@@]21C` [R1881]: the “proliferation over time in the presence of BI2536 and synthetic androgen” value in data set [6] (5 nM BI2536, csFBS (FIG. 3B)) was “somewhat rescued”; in [7] (5 nM BI2536, csFBS (FIG. 3B)), “somewhat rescued”. Besides, the “viability in the presence of BI2536 and synthetic androgen” value in data set [6] (csFBS (FIG. 3A)) and in data set [7] (csFBS (FIG. 3A)) was “somewhat rescued” each time.
As to `C[C@@H](Oc1cc(-n2cnc3ccc(CN4CCN(C)CC4)cc32)sc1C(N)=O)c1ccccc1C(F)(F)F` [GSK461364], in [16], the “effect in xenograft tumor models” value is reported as “tumor regression”. Moreover, in data set [17] (in vivo), the DLTs entry is “grade 4 neutropenia, sepsis, and pulmonary embolism”; the “incidence of venous thrombotic emboli” value is 20%. For the same compound, in data set [17] (intravenously, schedule A (days 1, 8, and 15 of 28-day cycle)), the “final recommended phase II dose” value is on record as 225 mg. In addition, the “nature of cell culture growth inhibition” value in data set [18] is given as “cytostatic or cytotoxic”.
As for `CC[C@@H]1C(=O)N(C)c2cnc(Nc3ccc(C(=O)NC4CCN(C)CC4)cc3OC)nc2N1C1CCCC1` [BI2536], the MTD in data set [19] is 50 to 70 mg. For the same compound, the T/C (as a rule, the ratio of treated to control) in [20] was 5%; in data set [22], 14%; in [24] (50 mg/kg once per week), 15%; in [24] (50 mg/kg twice per week), 0.3%. In addition, the proliferation over time result in [6] (5 nM BI2536, csFBS (FIG. 3B)) is “reduced”; in [7] (5 nM BI2536, csFBS (FIG. 3B)), “reduced”. Further, the viability result in data set [6] (setting [33]) and in data set [7] (setting [33]) was “reduced” each time. In addition, the maximum tolerated dose in data set [21] (day 1 schedule) is 350 mg; in [21] (days 1+8 schedule), 200 mg. In addition, in [23], the PSA expression result is “did not suppress PSA expression”. Moreover, the safety profile result in data set [25] (200 mg combined with standard-dose pemetrexed) is “acceptable safety profile”. Further, the “dose-limiting toxicities (DLT)” value in [25] (325 mg with pemetrexed) was “grade 3 pruritus and rash; grade 4 neutropenia”. For the same compound, the “maximum tolerated dose (MTD)” value in data set [25] (in combination with 500 mg/m^2 pemetrexed, day 1 every 3 weeks, intravenous) is given as 300 mg. Moreover, in data set [7], the “relative levels of proliferation” value is on record as “reduced over time”.
Consider `Cc1ncc(CCCN(C)C)cc1Nc1ncc2c(n1)-c1ccc(C(F)(F)F)cc1NC(=S)C2` [MLN0905], for which the EC50 (commonly the concentration that produces a half-maximal response) was 29 nM in [26] and 9 nM in [27].
Consider `CC(=O)O[C@H]1CC[C@@]2(C)C(=CC[C@@H]3[C@@H]2CC[C@]2(C)C(c4cccnc4)=CC[C@@H]32)C1` [Abiraterone acetate, abiraterone acetate], for which the solubility in water result in data set [28] is listed as “practically insoluble in water”.
Turning to `CN1CCN(c2ccc(OC(F)(F)F)c(Nc3ncc4c(n3)-c3c(c(C(N)=O)nn3CCO)CC4)c2)CC1` [NMS 1286937], the “potency in proliferation assays” value in [29] was “low nanomolar activity”.
As for `COc1ccc(S(=O)(=O)Nc2ccccc2/C=C/c2cc[n+]([O-])cc2)cc1` [HMN-176], the cytotoxicity result in data set [30] is “potent cytotoxicity”. Moreover, the antitumor activity entry in data set [31] is reported as “potent antitumor activity”. Further, the “direct inhibition of the enzymatic activity of Plk1” value in data set [32] was “does not directly inhibit the enzymatic activity of Plk1”.
As to `C[C@]12CC[C@H](O)CC1=CC[C@@H]1[C@@H]2CC[C@]2(C)C(c3cccnc3)=CC[C@@H]12` [abiraterone], the “sensitivity to Abiraterone in the absence of BI2536” value was “relatively resistant” in [5] (five days, csFBS) and “relatively resistant” in data set [7] (five days, csFBS). The PSA expression result in [23] is “substantially decreased”. Further, the “relative levels of proliferation” value in [7] is given as “reduced over time”.

(Values after patent publication US12115171B2, “Combination therapies and methods of use thereof for treating cancer” (Massachusetts Institute of Technology, priority 2014, dated 2024).)
